According to paper PMC10823475, “Design, Synthesis, and Evaluation of Inhibitors of Hedgehog Acyltransferase” (Journal of Medicinal Chemistry, 2024):
pIC50: −log10 of the molar value. Several values for one entry are separate records, joined by “and”; a condition that tells them apart may be missing. Identical values can stand only once. Like-named read-outs stand apart in the source and are kept apart here.

Assays:
[1] = system: palmitoylation of SHH in HEK293a SHH+ cells; experiment: Cell-based YnPal metabolic tagging assay; details: for pIC50: HEK293-A, HEK293a SHH+ cells
Description: We first quantified the direct impact of previously reported HHAT inhibitors on palmitoylation of SHH using a cell-based metabolic tagging assay.[27],[36] In this assay, HEK293a SHH^+ cells were incubated with varying concentrations of inhibitors in the presence of alkyne palmitic acid derivative YnPal (Figure 5A).[35] Following cell lysis and bioorthogonal derivatization of palmitoylated proteins with capture reagent azide-TAMRA-biotin (AzTB)^67 using a copper catalyzed azide–alkyne cycloaddition (CuAAC) reaction, AzTB-labeled SHH is shifted to higher apparent molecular weight in sodium dodecyl sulfate polyacrylamide gel electrophoresis (SDS-PAGE), thereby enabling quantification of acylated SHH by α-SHH immunoblotting (compound 2, 17, and 22) or fluorescence imaging (compound 24, 28, and 30; SI, Figure S5–S6).[42]
HEK293a SHH^+ cells were plated at 500,000 cells/well of a 6-well plate in a volume of 3 mL/well and cultured for 24 h as described. Cells were treated with DMSO vehicle, or RUSKI compounds in DMSO (0.016–10 μM final). After 1 h, 3 μL of YnPal (20 mM DMSO stock; 20 μM final) were added and the cells were cultured for another 6 h. Subsequently, cells were washed with PBS and lysed using PBS supplemented with 1% Triton, 0.1% SDS and Complete EDTA-free protease inhibitor cocktail (Roche Diagnostics). Cells were scraped off the plates and lysates centrifuged at 13 000g for 10 min at 4 °C to remove cell debris. Protein concentration was determined using the DC Protein Assay (Bio-Rad) following the manufacturer’s procedure.
The click reaction in cell lysate was performed as previously described.[42] Briefly, 1 μL AzTB (10 mM in DMSO, 100x), 2 μL CuSO4 (50 mM in H2O, 50x), 2 μL tris(2 carboxyethyl)phosphine hydrochloride (TCEP) (50 mM in H2O, 50×), and 1 μL tris[(1-benzyl-1H-1,2,3-triazol-4-yl)methyl]amine (TBTA, 10 mM in DMSO, 100×) were mixed. Then 6 μL of this click mixture were added to 100 μL of lysate, adjusted with lysis buffer to a protein concentration of 1 mg/mL. The click reaction was shaken at RT for 1 h. Subsequently, proteins were precipitated by adding methanol, chloroform, and water at a ratio of 2:0.5:1 to remove click reagents and excess of AzTB. The mixture was centrifuged (13 000g, 5 min at 4 °C) and the methanol and water containing top layer removed. Following the addition of an excess of methanol, the precipitated proteins were isolated by centrifugation (13 000g, 10 min at 4 °C) and washed twice with methanol. The protein pellets were air-dried and redissolved in PBS containing 0.2% SDS and 0.1 mM DTT using sonication, and adjusted to a final protein concentration of 1 mg/mL.
For enrichment of YnPal-labeled proteins, 100 μg of lysate were incubated with 30 μL of prewashed (3 × 500 μL of 0.2% SDS in PBS) Dynabeads MyOne Streptavidin C1 beads (Invitrogen) for 1 h at room temperature. Beads ware washed twice with 500 μL of 0.2% SDS in PBS and boiled for 10 min in 15 μL of PBS containing SDS-PAGE sample buffer. The entire pull-down sample and 10 μg of total lysate and supernatant fractions were loaded on a 15% SDS-PAGE gel. Fluorescence was scanned using a Typhoon imager (GE Healthcare; excitation laser: 532 nm, emission filter: LPG (575–700 nm); PMT: 750 V).
Proteins were transferred to nitrocellulose membrane using a wet transfer apparatus (100 V, 1 h). Membranes were blocked with 5% BSA in TBS-T (0.1% Tween-20, 50 mM Tris, 150 mM NaCl, pH 7.5) for 1 h at room temperature, followed by overnight incubation with SHH H-160 primary antibody (Santa Cruz Biotechnology; sc-9024; 1:200 in TBS-T + 0.5% BSA) or α-tubulin primary antibody (Santa Cruz Biotechnology; sc-8035; 1:200 in TBS-T + 0.5% BSA) at 4 °C. Membranes were washed with TBS-T and further incubated at RT for 1 h with the appropriate secondary antibody (HRP conjugated goat-antimouse IgG (H+L) or goat-antirabbit IgG (H+L); Advansta; 1:10,000 in TBS-T + 0.5% BSA). […]

[2] = Microsomal incubations, mouse liver microsomes; assay type: in vitro ADME; details: 1 μM
Description: Metabolic stability assays were performed using a Microlab Star liquid handling workstation (Hamilton Robotics, Bonaduz, Switzerland). Test compounds (1 μM, 1% DMSO) were preincubated at 37 °C for 10 min in 0.5 mg/mL female CD1 mouse and mixed gender human liver microsomes in 10 mM phosphate buffered saline (PBS; Sigma-Aldrich Company Ltd. (Dorset, UK)). Microsomes were purchased either from Sekisui XenoTech, LLC (Kansas City, USA) or BioreclamationIVT (Frankfurt Am Main, Germany). Reactions were initiated by the addition of NADPH (final concentration 1 mM). At 0, 15, and 30 min, aliquots were removed from each incubation and quenched in 3 volumes of ice-cold methanol containing olomoucine (Sigma-Aldrich, Dorset, UK) as an internal standard. […] The percentage metabolized was calculated by comparing peak area ratio (peak area test compound/peak area of internal standard) at t = 15 and 30 min versus t = 0 min.

HEK293a SHH+ cells = experiment: MTS assay, cytotoxicity (72 h); assay type: cell-based; details: for decrease in cell viability / cell survival: 12.5 μM
Summary of the method: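 Cells plated at 5000/well, cultured 24 h, then exposed to analogues (0.14–100 μM final) in DMEM/10% FBS for 72 h. MTS/PMS added for 3 h at 37 °C and absorbance read at 490 nm; data normalised to DMSO vehicle and puromycin (2 μg/mL) wells, curves fitted with a variable-slope sigmoidal model.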

[3] = read-out: YnPal tagging IC50 (CI95)

Structure (SMILES) | pIC50 [1, 3] | MLM % metabolized after 15 min [2] | MLM % metabolized after 30 min [2] [%] | decrease in cell viability / cell survival (HEK293a SHH+ cells) [%] | toxicity to HEK293a SHH+ cells (HEK293a SHH+ cells) | inhibition of SHH tagging by YnPal [1] | pIC50 ([1]; read-out: IC50, cellular YnPal labeling of SHH) | CC50 (HEK293a SHH+ cells; 72 h, read-out: MTS Assay (HEK293a SHH+) CC50 (CI95)) [nM]
C=CCNCC(=O)N1CCc2sccc2C1COc1ccc(Cl)cc1 (stereo not shown) [Compound 2] | 5.63 | 90.8% and > 90% | 98.4 | 44 |  |  |  | 
CC(=O)N1CCc2sccc2C1c1ccccc1 (stereo not shown) [Compound 5] |  | 99.5% and > 90% | 99.4 | < 30 |  |  |  | 
CCC(C)CNCC(=O)N1CCc2sccc2C1c1cccc(C)c1 (stereo not shown) [Compound 17] | 6.24 | 99.5% and > 90% | 100.0 |  | toxic |  |  | 
CCC(C)CNCC(=O)N1CCc2sccc2C1c1cccc(C)n1 (stereo not shown) [Compound 22] | 5.97 | 98.1% and > 90% | 99.7 |  |  |  |  | 
Cc1cccc(C2c3ccsc3CCN2C(=O)CNCC(C)C)n1 (stereo not shown) [Compound 24] | 6.31 |  |  |  |  |  |  | 
Cc1cccc([C@@H]2c3ccsc3CCN2C(=O)CNCC(C)C)n1 [Compound 28] | < 5.00 |  |  |  |  | inactive |  | 
Cc1cccc([C@H]2c3ccsc3CCN2C(=O)CNCC(C)C)n1 [Compound 30] |  | > 90% and 95.5% | 99.7 | < 30 |  |  | 7.12 | > 100000
